# Measured values: patent US10179116B2, “Methods, compositions, and kits for treating pain and pruritis” (President and Fellows of Harvard College, priority 2006, dated 2019)
# Experiments:
# sodium current = assay: Sodium current with TRPA agonist mustard oil and QX-314 (Example 3); format: cell-based; settings: MO alone, 50 μM
# Method: MO alone reduces sodium current by 20-30% and reaches a plateau after approximately 3 minutes.
# sodium channel = assay: Voltage clamp of sodium channel current in small dorsal root ganglion neurons with eugenol (Example 2); format: cell-based
# Method: Co-application of eugenol and QX-314 produces progressive block that can be complete after 7 minutes. Two examples are depicted, which are representative of 10 experiments with similar results.
# We have also shown that eugenol (C10H12O2), an allyl chain-substituted guaiacol, 2-methoxy-4-(2-propenyl)phenol (active ingredient in oil of clove, and a non-pungent agonist of TRPV1 receptors) promotes entry of QX-314 into dorsal root ganglion neurons by activating TRPV1 channels. FIG. 5 depicts voltage clamp recordings of sodium channel current in small dorsal root ganglion neurons. […] Co-application of eugenol and QX-314 produces progressive block that can be complete after 7 minutes. Two examples are depicted, which are representative of 10 experiments with similar results. […] Thus, these experiments indicate that eugenol promotes entry of QX-314 into dorsal root ganglion neurons by activating TRPV1 channels.
# [1] = Sciatic nerve injection, mechanical threshold (von Frey filaments); format: in vivo, rat; settings: QX-314 0.2%, 100 μL, capsaicin 0.5 μg/μL, 100 μL (for 30 min), or QX-314 then capsaicin, stiffest hair 57 g
# Method: (§1) Motor effects were scored according to a scale of 0 (no effect; normal gait and limb placement), 1 (limb movement but with abnormal limb placement and movement) or 2 (complete loss of limb movement). […] For co-application of QX-314 and capsaicin into the para-sciatic nerve region, we injected QX-314 first, followed 10 minutes later by capsaicin, with the idea that QX-314 would be present extracellularly and ready to enter TRPV1 channels as soon as they were activated.
# (§2) For sciatic nerve injections, animals were first habituated to handling for 10 days. Lidocaine (0.2% or 2%, 100 μL); QX-314 (0.2%, 100 μL) alone; capsaicin (50 μg in 100 μL) alone, or QX-314 followed by capsaicin (10 minutes interval) were injected into the area of sciatic nerve below the hip joint. Mechanical and thermal thresholds were determined using von Frey filaments and radiant heat. […] Walking, climbing, walking on the rod and placing reflex were examined. […] All experiments were done with the experimenter blinded.
# [2] = tested on: voltage-dependent sodium channels; assay: Whole-cell voltage clamp of sodium current in small capsaicin-sensitive DRG neurons; format: cell-based, rat; settings: n=25
# Method: We recorded current through voltage-dependent sodium channels using whole-cell voltage clamp recordings from adult rat DRG neurons. To select for nociceptors, we recorded from small (24±5 μm; n=25) neurons and tested the neurons for the expression of TRPV1 receptors by a short (1-sec) application of 1 μM capsaicin. In 25/25 of small neurons tested, capsaicin produced a prolonged (10±3 sec) inward current (FIG. 1A, upper panel), consistent with the neurons being nociceptors. Sodium currents were elicited by depolarizing steps from a holding potential of −70 mV.
# (§3) Dorsal root ganglia from 6-8 week old Sprague-Dawley rats were removed and placed into […] containing 1% penicillin—streptomycin (Sigma), then treated for 90 minutes with 5 mg/ml collagenase, 1 mg/ml Dispase II (Roche, Indianapolis, Ind.) and for 7 minutes with 0.25% trypsin, followed by addition of 2.5% trypsin inhibitor. Cells were triturated in the presence of […] (50 U), centrifuged through 15% BSA (Sigma), resuspended in 1 ml Neurobasal medium (Sigma), 10 μM AraC, NGF (50 ng/ml) and GDNF (2 ng/ml) and plated onto poly-lysine (500 μg/ml) and laminin (5 mg/ml) coated 35 mm tissue culture dishes (Becton Dickinson) at 8000-9000 per well. Cultures were incubated at 37° C., 5% carbon dioxide. Recordings were made within 48 hours after plating. […]
# [3] = Intraplantar injection, thermal (radiant heat) response latency; format: in vivo, rat; settings: QX-314 at 30 min, capsaicin at 15 and 30 min, together at 2 hours, heat applied for 25 seconds
# Method: Similar effects were seen examining sensitivity to a standardized noxious radiant heat stimulus. […] This effect remained for 4 hours after the injection (FIG. 3B).
# [4] = Intraplantar injection, mechanical threshold for paw withdrawal (von Frey hairs); settings: QX-314 10 μL of 2%, capsaicin 10 μg/10 μL (15 and 30 minutes), or together (15 minutes)
# Method: (§4) We next examined if the combination of capsaicin and QX-314 can reduce pain behavior in vivo.
# (§5) For intraplantar injections, rats were first habituated to handling and tests performed with the experimenter blind to the treatment. Intraplantar injections of vehicle (20% ethanol, 5% Tween 20 in saline, 10 μL) capsaicin (1 μg/μL), QX-314 (2%) or mixture of capsaicin and QX-314 into the left hindpaw were made and mechanical and thermal sensitivities determined using von Frey hairs and radiant heat respectively.
# [5] = tested on: small diameter DRG neurons; assay: Current clamp, action potential generation in small DRG neurons; format: cell-based, rat; settings: QX-314 5 mM, capsaicin 1 μM, alone or co-applied
# Method: We also examined the effect of co-applied QX-314 and capsaicin in current clamp using physiological internal and external solutions.
# Current clamp recordings were made using the fast current clamp mode of the Axopatch 200A amplifier Pipette solution was 135 mM K gluconate; 2 mM MgCl2; 6 mM KCl; 10 mM HEPES; 5 mM Mg ATP; 0.5 mM Li2GTP; (pH=7.4 with KOH). External solution was 145 mM NaCl; 5 mM KCl; 1 mM MgCl2; 2 mM CaCl210 mM HEPES; 10 mM glucose; (pH adjusted to 7.4 with NaOH). Membrane potential was corrected for a liquid junction potential of −15 mV.
# Command protocols were generated and data digitized using a Digidata 1200 A/D interface with pCLAMP 8.2 software (Axon Instruments, Union City, Calif.). Voltage-clamp current records were low pass filtered at 2 kHz and current clamp recordings at 10 kHz (−3 dB, 4 pole Bessel filter).
# QX-314 (5 mM), capsaicin (1 μM or 500 nM), or their combination was applied using custom-designed multibarrel fast drug delivery system placed about 200-250 μm from the neuron. Solution exchange was complete in less than a second.
# [6] = Sciatic nerve injection, motor function score and placing reflex
# Method: as §1, §2
# [7] = tested on: voltage-dependent sodium channels; assay: Whole-cell voltage clamp of sodium current in large capsaicin-insensitive DRG neurons; format: cell-based, rat; settings: 10-minute application, n=10
# Description: To test whether the ability of co-applied capsaicin and QX-314 to inhibit sodium current is selective for cells that express TRPV1 receptors, we also recorded from large DRG neurons (soma diameter >40 μm) (FIG. 1A, right). […] As for small diameter neurons, QX-314 applied alone had little or no effect on sodium current (current increased by 8±4% after a 10-minute application, n=10). Unlike small diameter neurons, capsaicin had no effect on sodium current in large diameter neurons (average increase by 3±2% after a 10-minute application, n=10).
# as §3
# [8] = Sciatic nerve injection, thermal (radiant heat) response latency; format: in vivo, rat; settings: QX-314 0.2%, 100 μL, capsaicin 0.5 μg/μL, 100 μL (for 30 min)
# Method: as §1, §2
# [9] = Intraplantar injection, spontaneous flinching; settings: first 5 min after intraplantar injection
# Method: as §4, §5
# TRPV1 receptors [10] = assay: Capsaicin-evoked inward current in large DRG neurons; format: cell-based, rat; settings: soma diameter >40 μm; 10 of 10
# Method: Dorsal root ganglia from 6-8 week old Sprague-Dawley rats were removed and placed into Dulbecco's Minimum Essential Medium containing 1% penicillin—streptomycin (Sigma), then treated for 90 minutes with 5 mg/ml collagenase, 1 mg/ml Dispase II (Roche, Indianapolis, Ind.) and for 7 minutes with 0.25% trypsin, followed by addition of 2.5% trypsin inhibitor. Cells were triturated in the presence of DNAase I inhibitor (50 U), centrifuged through 15% BSA (Sigma), resuspended in 1 ml Neurobasal medium (Sigma), 10 μM AraC, NGF (50 ng/ml) and GDNF (2 ng/ml) and plated onto poly-lysine (500 μg/ml) and laminin (5 mg/ml) coated 35 mm tissue culture dishes (Becton Dickinson) at 8000-9000 per well. Cultures were incubated at 37° C., 5% carbon dioxide. Recordings were made within 48 hours after plating. Average size of small neurons chosen as likely nociceptors was 23±6 μm (n=50) and that of large neurons was 48±8 μm (n=10).
# (§6) Whole-cell voltage-clamp or current-clamp recordings were made using an Axopatch 200A amplifier (Axon Instruments, Union City, Calif.) and patch pipettes with resistances of 1-2 MΩ. […]
# TRPV1 receptors [11] = molecular target: T1, TRPV1 receptors (Rattus norvegicus, UniProt O35433); assay: Capsaicin-evoked inward current in small DRG neurons (test for TRPV1 expression); format: cell-based; settings: 1-sec application of 1 μM capsaicin
# T1 construct: Dorsal root ganglia from 6-8 week old Sprague-Dawley rats were removed; endogenous in cells; host or cells: primary cultured DRG neurons from 6-8 week old Sprague-Dawley rats
# T1 sequence (O35433 whole entry): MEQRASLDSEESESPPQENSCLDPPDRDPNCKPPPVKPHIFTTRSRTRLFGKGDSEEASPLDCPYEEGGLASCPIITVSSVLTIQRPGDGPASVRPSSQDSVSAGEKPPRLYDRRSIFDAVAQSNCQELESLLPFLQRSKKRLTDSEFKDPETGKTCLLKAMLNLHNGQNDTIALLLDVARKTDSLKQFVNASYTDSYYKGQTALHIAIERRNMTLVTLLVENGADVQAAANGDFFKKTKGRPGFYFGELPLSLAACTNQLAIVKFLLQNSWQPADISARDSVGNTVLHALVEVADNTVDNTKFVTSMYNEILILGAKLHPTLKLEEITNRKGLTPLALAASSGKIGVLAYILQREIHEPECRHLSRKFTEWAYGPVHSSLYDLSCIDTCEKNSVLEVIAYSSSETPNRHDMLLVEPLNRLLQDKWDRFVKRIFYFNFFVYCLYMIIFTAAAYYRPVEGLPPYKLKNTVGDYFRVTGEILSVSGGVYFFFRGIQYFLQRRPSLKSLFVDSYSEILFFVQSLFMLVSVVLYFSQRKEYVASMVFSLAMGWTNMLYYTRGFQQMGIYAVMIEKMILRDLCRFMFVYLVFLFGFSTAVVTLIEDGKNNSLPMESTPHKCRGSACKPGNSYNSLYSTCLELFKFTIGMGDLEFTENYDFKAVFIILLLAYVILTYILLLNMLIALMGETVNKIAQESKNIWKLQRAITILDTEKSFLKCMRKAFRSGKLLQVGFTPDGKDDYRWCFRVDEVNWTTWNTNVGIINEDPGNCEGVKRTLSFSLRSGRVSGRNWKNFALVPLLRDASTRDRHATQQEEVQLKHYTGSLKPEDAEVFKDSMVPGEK
# Method: We recorded current through voltage-dependent sodium channels using whole-cell voltage clamp recordings from adult rat DRG neurons. To select for nociceptors, we recorded from small (24±5 μm; n=25) neurons and tested the neurons for the expression of TRPV1 receptors by a short (1-sec) application of 1 μM capsaicin. […] Sodium currents were elicited by depolarizing steps from a holding potential of −70 mV.
# Dorsal root ganglia from 6-8 week old Sprague-Dawley rats were removed and placed into Dulbecco's Minimum Essential Medium containing 1% penicillin—streptomycin (Sigma), then treated for 90 minutes with 5 mg/ml collagenase, 1 mg/ml Dispase II (Roche, Indianapolis, Ind.) and for 7 minutes with 0.25% trypsin, followed by addition of 2.5% trypsin inhibitor. Cells were triturated in the presence of DNAase I inhibitor (50 U), centrifuged through 15% BSA (Sigma), resuspended in 1 ml Neurobasal medium (Sigma), 10 μM AraC, NGF (50 ng/ml) and GDNF (2 ng/ml) and plated onto poly-lysine (500 μg/ml) and laminin (5 mg/ml) coated 35 mm tissue culture dishes (Becton Dickinson) at 8000-9000 per well. Cultures were incubated at 37° C., 5% carbon dioxide. Recordings were made within 48 hours after plating.
# as §6
structure (smiles),measurement,setting,value
C=CCN=C=S [MO],reduction of sodium current,sodium current,20-30%
same,time to plateau of sodium current reduction,sodium current,approximately 3 minutes
CC[N+](CC)(CC)CC(=O)Nc1c(C)cccc1C [QX-314],effect of external QX-314 alone on sodium channels,sodium channel; external application,no effect
same,effect on mechanical threshold,[1],no significant effect
same,decrease of sodium current,"[2]; bath application of 5 mM QX-314 alone, 5-minute application",3±0.5%
same,effect on thermal response latency / reaction to noxious radiant heat,[3],transiently reduced the thermal response latency
same,effect on mechanical threshold for withdrawal response,[4],no significant effect
same,effect on action potential,[5],no effect
same,effect on motor function,"[6]; rat, in vivo",no effect on motor function
same,increase of sodium current,[7]; QX-314 alone,8±4%
same,effect on thermal response latency,[8],no significant effect
COc1cc(CNC(=O)CCCC/C=C/C(C)C)ccc1O [capsaicin],effect on mechanical threshold,[1],reduced
same,number of flinches,[9],40±6
same,inhibition of sodium current,"[2]; capsaicin alone, 1 μM for 1-10 minutes",31±9%
same,inward current elicited in large DRG neurons,TRPV1 receptors [10],did not elicit an inward current
same,effect on thermal response latency / reaction to noxious radiant heat,[3],reduced as expected the thermal response latency
same,effect on mechanical threshold for withdrawal response,[4],significantly reduced the mechanical threshold
same,small neurons in which capsaicin produced inward current,TRPV1 receptors [11],25/25
same,duration of prolonged inward current,TRPV1 receptors [11]; small neurons,10 ± 3 s
same,effect on action potential,[5],reduced the action potential amplitude
same,mean motor score,"[6]; capsaicin alone 0.5 μg/μL, 100 μL, within 30 min after injection, scale 0-2",0.7±0.2
same,animals with sustained flexion of the injected limb,[6]; sciatic injection,4 out of the 6
same,effect on placing reflex,[6]; sciatic injection,unchanged
same,average increase of sodium current,[7]; capsaicin alone,3±2%
same,effect on thermal response latency,[8],reduced
"C=CCc1ccc(O)c(OC)c1 [eugenol, 2-methoxy-4-(2-propenyl)phenol]",inhibition of sodium current,sodium channel; eugenol alone,10-20%
CCN(CC)CC(=O)Nc1c(C)cccc1C [lidocaine],duration of complete loss of placing reflex,"[6]; rat, in vivo",at least 30 minutes
same,effect on motor function,"[6]; rat, in vivo",complete paralysis of the lower limb
same,effect on placing reflex,"[6]; rat, in vivo",complete loss of the tactile stimulus-evoked placing reflex
same,time of full recovery of sensory and motor deficits,"[6]; rat, in vivo",≤ 45 min
same,mean motor score,"[6]; rat, in vivo, 30 min",1.67±0.2
